# US6432413B1, “Functional improvements in Fahr disease” (Wayne State University, priority 1998, dated 2002)
# Assays:
# Type in all cases: in vivo, human
# [1] = system: patient with Fahr disease; assay: Previous drug treatments of the same Fahr disease patient; settings: before the study
# Source text: Prior to initiating and throughout the study, they were maintained on the same doses of baclofen, pergolide, lorazepam, naproxen, diltiazem, probanthiline bromide, and hyoscyamine sulfate. They were placed on isosorbide dinitrate 2 months into the study for ischemic heart disease.
# cerebral calcification = assay: Quantitation of cerebral calcification by serial CAT scans
# Source text: FIG. 1 is a series of axial CAT scans and 3-dimensional reconstructions of basal ganglia calcification. Panels A-D show the extent of cerebral calcification on axial CAT scan images showing involvement of the basal ganglia, thalamus, and cerebellum. Panels E-H are 3-dimensional reconstructions of the basal ganglia, thalami, and pineal gland in different projections. The patient is directly facing the viewer in Panel E, turning to the left by 30 degrees in Panel F, and by 60 degrees in Panel G. Panel H is a projection looking from above and behind the patient, in the same orientation as the CAT scans described above. […]
# FIG. 3 is a graph showing quantitation of cerebral calcification. […]
# Quantitative measurements of cerebral calcification were obtained using contiguous regions of calcification, defined as those containing pixels greater than 50 Hounsfield units, on each 3 mm coronal image. […]
# After obtaining baseline measurements and informed consent, the patient was begun on 15 mg/kg of disodium etidronate given once daily for two 6 month periods, separated by a 6 month period off of the drug, which was carried out as an internal control and to allow for normal bone mineralization. Serial neurologic examinations were performed by the same physician, and included three quantitative measurements: counting from 1-20, counting from 20-1, and walking 15 feet and back. […]
# [2] = Side effects during treatment of the Fahr disease patient; settings: 15 mg/kg once daily
# Experimental: (§1) After obtaining baseline measurements and informed consent, the patient was begun on 15 mg/kg of disodium etidronate given once daily for two 6 month periods, separated by a 6 month period off of the drug, which was carried out as an internal control and to allow for normal bone mineralization. Serial neurologic examinations were performed by the same physician, and included three quantitative measurements: counting from 1-20, counting from 20-1, and walking 15 feet and back. Instructions were given with the same amount of encouragement for each of the serial measurements. Duplicate measures of counting 1-20 and walking taken two weeks apart were averaged to produce baseline values. There was little variation between the duplicate measures. Baseline and follow-up videotapes of the neurologic exam and CAT scans, to quantify the amount of cerebral calcification, were obtained in a uniform manner.
# For example, they could button their shirts, which they could not do previously.
# [3] = system: patient with familial, idiopathic cerebral calcinosis of the basal ganglia (Fahr disease); assay: Treatment of a patient with Fahr disease: serial neurologic examinations, timed speech and gait, Blessed Dementia Scale
# Source text: FIG. 2 is a series of graphs showing the effect of treatment on speech and gait. Timed measurements of speech (counting from 1-20 or 20-1) and gait (walking 15 feet and back) were made during two treatment cycles with disodium etidronate. The start and stop times indicate the times at which the medication was begun and discontinued, respectively. Each zero time point for counting 1-20 and walking 15 feet and back represents an average of 2 separate measurements, taken 2 weeks apart.
# The patient is a person with hypertension and osteoarthritis who presented with transient right hemiparesis and dysarthria. […] Their major neurologic disabilities prior to treatment were slowness of gait and speech, rigidity, spasticity, cerebellar ataxia, dystonia, and dysphagia. They scored 6 points out of a possible 37 points on the right side of the Blessed Dementia Scale, which measures memory and concentration (6). A score of 0 points is without error. They had been having frequent emotional outbursts and inappropriate hypersexuality.
# as §1
# [4] = second six month course of treatment
compound,measurement,setting,value
NCC(CC(=O)O)c1ccc(Cl)cc1 (centres unmarked) [baclofen],improvement with previous drug treatment,[1],minimal improvement
CC(O)(P(=O)(O)O)P(=O)(O)O [disodium etidronate],"shape and size of the cerebral calcification, qualitative comparison of CAT scans and 3-dimensional reconstructions",cerebral calcification; after treatment,did not demonstrate any change
same,"brain calcium content, quantitative measurements from serial CAT scans (density x area)",cerebral calcification; before treatment vs after first (6 months) and second (18 months) treatment periods,"did not show any reduction in brain calcium content, but perhaps a small increase"
same,side effects,[2],"no side effects from the medication, except for transient elevations in serum phosphate"
same,gait and speech after stopping the medication,[3]; 6 month period off of the drug,"significant deterioration in their gait, but little loss in the gains made with their speech"
same,"speech, attention span, emotional outbursts and inappropriate sexual behavior as felt by the patient's family",[3]; after one month on 15 mg/kg once daily,"their speech had become clearer, their attention span improved, and their emotional outbursts and inappropriate sexual behavior ceased"
same,bradykinesia and emotional lability,[3]; after treatment,clearly improved
same,"spasticity, cerebellar ataxia, and dystonia",[3]; after treatment,unchanged
same,Blessed Dementia Scale score,"[3]; eighteen months after beginning treatment, previous score 6, 0 points is without error",2
same,gait and fine motor skills,"[3]; first treatment period, 15 mg/kg once daily","His gait also improved, together with fine motor skills"
same,"increase in the speed of speech and gait (counting 1-20, 20-1, walking 15 feet and back)",[3]; over the first six months of treatment,two-fold increase
same,counting from 1-20,[3]; [4],improvement
same,counting from 20-1,[3]; [4],some deterioration
same,gait,[3]; [4],again improved
same,speech,[3]; [4],did not change appreciably
same,other measurements of the speed of motor movement (rapid finger tapping and knee patting),[3]; videotape before medication vs end of first six month treatment,improved considerably
same,speech (rate and clarity),"[3]; within four months of treatment, 15 mg/kg once daily",their speech became more rapid and clear
O=C1Nc2ccc(Cl)cc2C(c2ccccc2Cl)=NC1O (centres unmarked) [lorazepam],improvement with previous drug treatment,[1],minimal improvement
CCCN1C[C@H](CSC)C[C@@H]2c3cccc4[nH]cc(c34)C[C@H]21 [pergolide],improvement with previous drug treatment,[1],minimal improvement
carbidopa-levodopa,improvement with previous drug treatment,[1],minimal improvement
